Data taken from patent publication US10633675B2, “Microbial engineering for the production of chemical and pharmaceutical products from the isoprenoid pathway” (priority 2009, dated 2020).

Assays:
[1] = tested on: engineered strains of E. coli; experiment: Effect of externally-introduced indole on cell growth; assay type: cell-based
Description: (§1) FIGS. 15A-15C. Impact of metabolite byproduct Indole accumulation on taxadiene production and growth. […] Strains 26 to 28 and 30 to 32, all with chromosomally integrated upstream pathway expression, were chosen for consistent comparison. The two sets of strains differ only in the expression of the downstream pathway with the second set (30 to 32) having twice the level of expression of the first. In strains 26 to 28 and 30 to 32, upstream expression increased by changing the promoters from Trc, to T5 and T7, respectively. […] The fold improvements are relative to strain 25 and 29, respectively, for the two sets. […] Different concentrations of indole were introduced into cultures of cells cultured in minimal media with 0.5% yeast extract. […] Data are mean+/−SD for three replicates. Strains devoid of the downstream pathway and with different strengths of the upstream pathway (1, 2, 6, 21, 40 and 100) were selected.

[2] = tested on: taxadiene synthesis by strain 26; experiment: Effect of externally-introduced indole on taxadiene production; assay type: cell-based, E. coli
Description: as §1

For c1ccc2[nH]ccc2c1 [indole], the “effect on cell growth” value ([1]; further increasing the indole concentration, level of inhibition very strain dependent (FIG. 15C)) was “inhibited cell growth”, the “effect on cell growth of strain 26 compared with strains devoid of the downstream pathway” value ([1]; strain 26, the high taxadiene producer (FIG. 15C)) was “strongest inhibition” and the “exogenous indole level at which taxadiene synthesis is severely inhibited” value ([2]; exogenous indole (FIG. 15B)) was > 100 mg/L. For the same molecule, the “effect on taxadiene production” value ([2]; indole concentration increased from 50 mg/L to 100 mg/L, minimal media with 0.5% yeast extract (FIG. 15B)) was “significantly reduced”.
